Tested on: 966289-007-R4-J1-PDC complex spheroid viability
Experiment: Anticancer human tumor 966289-007-R4-J1-PDC patient-derived pancreatic adenocarcinoma cell line growth inhibition [RAS]
Settings: for IC50: curve of first compound; for viability, T/C: stronger effect = lower value
How it was run: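 Tumour cells grown as complex spheroids with HUVEC endothelial cells and mesenchymal stem cells, treated with RAS pathway inhibitor combinations. Each agent spans half-log steps from near clinical Cmax, or 10 microM where Cmax is unknown.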

[1] = second compound 0.000949 µM, first compound 0.0316 µM
[2] = second compound 0.000949 µM, first compound 0.1 µM
[3] = second compound 0.000949 µM, first compound 0.316 µM
[4] = second compound 0.000949 µM, first compound 1 µM
[5] = second compound 0.000949 µM, first compound 3.16 µM
[6] = second compound 0.000949 µM, first compound 10 µM
[7] = second compound 0.003 µM, first compound 0.0316 µM
[8] = second compound 0.003 µM, first compound 0.1 µM
[9] = second compound 0.003 µM, first compound 0.316 µM
[10] = second compound 0.003 µM, first compound 1 µM
[11] = second compound 0.003 µM, first compound 3.16 µM
[12] = second compound 0.003 µM, first compound 10 µM
[13] = second compound 0.00949 µM, first compound 0.0316 µM
[14] = second compound 0.00949 µM, first compound 0.1 µM
[15] = second compound 0.00949 µM, first compound 0.316 µM
[16] = second compound 0.00949 µM, first compound 1 µM
[17] = second compound 0.00949 µM, first compound 3.16 µM
[18] = second compound 0.00949 µM, first compound 10 µM
[19] = second compound 0.03 µM, first compound 0.0316 µM
[20] = second compound 0.03 µM, first compound 0.1 µM
[21] = second compound 0.03 µM, first compound 0.316 µM
[22] = second compound 0.03 µM, first compound 1 µM
[23] = second compound 0.03 µM, first compound 3.16 µM
[24] = second compound 0.03 µM, first compound 10 µM
[25] = second compound 0.0949 µM, first compound 0.0316 µM
[26] = second compound 0.0949 µM, first compound 0.1 µM
[27] = second compound 0.0949 µM, first compound 0.316 µM
[28] = second compound 0.0949 µM, first compound 1 µM
[29] = second compound 0.0949 µM, first compound 3.16 µM
[30] = second compound 0.0949 µM, first compound 10 µM
[31] = second compound 0.3 µM, first compound 0.0316 µM
[32] = second compound 0.3 µM, first compound 0.1 µM
[33] = second compound 0.3 µM, first compound 0.316 µM
[34] = second compound 0.3 µM, first compound 1 µM
[35] = second compound 0.3 µM, first compound 3.16 µM
[36] = second compound 0.3 µM, first compound 10 µM
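Also: spheroids exposed to agents for one week before readout.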
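For viability, T/C in this document: percent viability relative to DMSO vehicle control wells as 100%.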

`CC1(O)CCCC1n1c(=O)c(C(F)F)cc2cnc(NC3CCN(S(C)(=O)=O)CC3)nc21` (centres undefined) + CCn1c(-c2cccnc2C(C)OC)c2c3cc(ccc31)N1CCOC(CC(NC(=O)C(C(C)C)N(C)C(=O)C3(F)CCN(C(=O)C#CC(C)(C)N(C)C)CC3)C(=O)N3CCCC(N3)C(=O)OCC(C)(C)C2)C1 was tested. Which IC50 (second compound 0.000949 µM) did it give?
The IC50 was 126 nM.

What about the IC50 (second compound 0.003 µM) of the same compound?
The IC50 was 155 nM.

What about the IC50 (second compound 0.00949 µM) of the same compound?
The IC50 was 155 nM.

And the IC50 (second compound 0.03 µM)?
The IC50 was 81.7 nM.

And the IC50 (second compound 0.0949 µM)?
The IC50 was 106 nM.

And the IC50 (second compound 0.3 µM)?
The IC50 was 107 nM.

What about the viability, T/C [1] of the same compound?
The viability, T/C was 102%.

And the viability, T/C [2]?
Its viability, T/C is 57.9%.

What about the viability, T/C [3] of the same compound?
Its viability, T/C is 21.9%.

And the viability, T/C [4]?
Its viability, T/C is 24.9%.

What about the viability, T/C [5] of the same compound?
The viability, T/C was 20.7%.

What about the viability, T/C [6] of the same compound?
Its viability, T/C is 3.78%.

What about the viability, T/C [7] of the same compound?
The viability, T/C was 115%.

And the viability, T/C [8]?
The viability, T/C was 67.3%.

And the viability, T/C [9]?
Its viability, T/C is 21.2%.

And the viability, T/C [10]?
The viability, T/C was 22.8%.

What about the viability, T/C [11] of the same compound?
Its viability, T/C is 23.8%.

What about the viability, T/C [12] of the same compound?
The viability, T/C was 4.11%.

And the viability, T/C [13]?
Its viability, T/C is 83.1%.

And the viability, T/C [14]?
Its viability, T/C is 68.5%.

And the viability, T/C [15]?
The viability, T/C was 19.7%.

What about the viability, T/C [16] of the same compound?
Its viability, T/C is 18.9%.

And the viability, T/C [17]?
Its viability, T/C is 23.4%.

And the viability, T/C [18]?
The viability, T/C was 2.04%.

And the viability, T/C [19]?
Its viability, T/C is 91.6%.

And the viability, T/C [20]?
The viability, T/C was 41.3%.

What about the viability, T/C [21] of the same compound?
Its viability, T/C is 18.8%.

What about the viability, T/C [22] of the same compound?
Its viability, T/C is 21.4%.

And the viability, T/C [23]?
Its viability, T/C is 24.4%.

And the viability, T/C [24]?
Its viability, T/C is 1.8%.

And the viability, T/C [25]?
The viability, T/C was 99.3%.

And the viability, T/C [26]?
Its viability, T/C is 51.8%.

And the viability, T/C [27]?
Its viability, T/C is 16.9%.

What about the viability, T/C [28] of the same compound?
The viability, T/C was 21.4%.

What about the viability, T/C [29] of the same compound?
The viability, T/C was 26%.

And the viability, T/C [30]?
The viability, T/C was 1.18%.

And the viability, T/C [31]?
Its viability, T/C is 64.1%.

What about the viability, T/C [32] of the same compound?
Its viability, T/C is 52.2%.

What about the viability, T/C [33] of the same compound?
The viability, T/C was 16%.

What about the viability, T/C [34] of the same compound?
Its viability, T/C is 23.2%.

And the viability, T/C [35]?
The viability, T/C was 24.1%.

What about the viability, T/C [36] of the same compound?
Its viability, T/C is 1.49%.

With `CCC(CC)c1cc(NC2CCC(N)C2)n2nccc2n1` (centres undefined) + CCn1c(-c2cccnc2C(C)OC)c2c3cc(ccc31)N1CCOC(CC(NC(=O)C(C(C)C)N(C)C(=O)C3(F)CCN(C(=O)C#CC(C)(C)N(C)C)CC3)C(=O)N3CCCC(N3)C(=O)OCC(C)(C)C2)C1 as the compound, how does the IC50 (second compound 0.000949 µM) read?
Its IC50 is 1500 nM.

And the IC50 (second compound 0.003 µM)?
Its IC50 is 1420 nM.

And the IC50 (second compound 0.00949 µM)?
Its IC50 is 1480 nM.

What about the IC50 (second compound 0.03 µM) of the same compound?
The IC50 was 1070 nM.

And the IC50 (second compound 0.0949 µM)?
Its IC50 is 764 nM.

And the IC50 (second compound 0.3 µM)?
Its IC50 is 595 nM.

What about the viability, T/C [1] of the same compound?
Its viability, T/C is 113%.

What about the viability, T/C [2] of the same compound?
Its viability, T/C is 87%.

And the viability, T/C [3]?
Its viability, T/C is 115%.

What about the viability, T/C [4] of the same compound?
The viability, T/C was 76.3%.

And the viability, T/C [5]?
The viability, T/C was 1.1%.

And the viability, T/C [6]?
The viability, T/C was 1.22%.

And the viability, T/C [7]?
Its viability, T/C is 99.7%.

And the viability, T/C [8]?
The viability, T/C was 82.4%.

What about the viability, T/C [9] of the same compound?
Its viability, T/C is 66.7%.

What about the viability, T/C [10] of the same compound?
The viability, T/C was 71.3%.

What about the viability, T/C [11] of the same compound?
The viability, T/C was 1.2%.

What about the viability, T/C [12] of the same compound?
Its viability, T/C is 0.93%.

And the viability, T/C [13]?
Its viability, T/C is 82.1%.

What about the viability, T/C [14] of the same compound?
The viability, T/C was 122%.

And the viability, T/C [15]?
The viability, T/C was 96.5%.

What about the viability, T/C [16] of the same compound?
Its viability, T/C is 75.1%.

And the viability, T/C [17]?
Its viability, T/C is 1.25%.

And the viability, T/C [18]?
The viability, T/C was 1.32%.

What about the viability, T/C [19] of the same compound?
The viability, T/C was 66.9%.

And the viability, T/C [20]?
Its viability, T/C is 72.1%.

What about the viability, T/C [21] of the same compound?
Its viability, T/C is 123%.

And the viability, T/C [22]?
Its viability, T/C is 52.9%.

What about the viability, T/C [23] of the same compound?
The viability, T/C was 1.48%.

And the viability, T/C [24]?
Its viability, T/C is 1.83%.

And the viability, T/C [25]?
The viability, T/C was 64%.

What about the viability, T/C [26] of the same compound?
Its viability, T/C is 106%.

And the viability, T/C [27]?
Its viability, T/C is 132%.

And the viability, T/C [28]?
The viability, T/C was 34.6%.

And the viability, T/C [29]?
Its viability, T/C is 0.98%.

What about the viability, T/C [30] of the same compound?
Its viability, T/C is 0.98%.

What about the viability, T/C [31] of the same compound?
The viability, T/C was 93.5%.

What about the viability, T/C [32] of the same compound?
Its viability, T/C is 94.5%.

And the viability, T/C [33]?
The viability, T/C was 98.5%.

What about the viability, T/C [34] of the same compound?
The viability, T/C was 12.7%.

What about the viability, T/C [35] of the same compound?
The viability, T/C was 1.23%.

And the viability, T/C [36]?
Its viability, T/C is 1.13%.
